Results on 28 compounds are retold here after PubChem BioAssay (NCI).

Values joined by “and” are separate entries in the source; they are usually repeats but may differ in a detail not shown here. Equal values may be shown once.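 48-hour exposure; five concentrations; linearly interpolated endpoints. Abbreviation: GI50, concentration required for 50% inhibition of growth. TGI marks complete inhibition of growth.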

The subject of the first experiment is CAKI-1 renal. As to the kind of experiment: inhibition of tumour cell growth, NCI panel, 48 h.
Consider `Cc1c(C(=O)CC(=O)C(=O)Nc2ccccc2C(F)(F)F)[n+](=O)c2ccccc2n1[O-]`, for which the TGI is greater than 100 µM.

Take `Cc1cc(N(CCC#N)CCC#N)ccc1N=Nc1ccc(S(N)(=O)=O)cc1`: the TGI was greater than 100 µM.

Regarding `Cc1nc2c(ccc3ncccc32)[nH]1`, the TGI is greater than 100 µM.

The compound `O=C(CCc1nc(=S)[nH][nH]1)Nc1cc(Cl)c(Cl)cc1Cl` returned a TGI greater than 100 µM.

In turn, `CN(C)C(=S)N=C(Nc1ccccc1)Nc1ccccc1` registered a TGI greater than 100 µM.

`Nc1ccccc1S(=O)(=O)N(CC(=O)O)c1ccccc1` returned a TGI greater than 100 µM.

Compound `CC1(C)C(=O)/C=C\C(=O)C(C)(C)C2=CC=C(O2)C(C)(C)C(=O)/C=C\C(=O)C(C)(C)C2=CC=C1O2` gave a TGI greater than 100 µM.

Consider `Cc1cc(NS(=O)(=O)c2ccc(Nc3c4ccccc4nc4c(C(=O)N5CCN(CCOS(C)(=O)=O)CC5)cccc34)cc2)no1`, for which the TGI was greater than 100 µM.

As for `C=CCO[C@H]1CO[C@H]2[C@@H]1OC[C@@H]2Oc1ccc(Nc2ccnc(Nc3ccc(O[C@H]4CO[C@H]5[C@@H]4OC[C@@H]5OCC=C)c(Cl)c3)n2)cc1Cl`, the GI50 was 1.73 µM and the TGI was found to be 3.1 µM.

As to `O=C(O)CCC(NC(=O)c1ccc(Nc2nc3ccccc3nc2-c2cccs2)cc1)C(=O)O` (stereo not given), the TGI was greater than 100 µM.

Turning to `COc1cc2ccnc([C@@H](OC(=O)c3ccccc3)c3ccc(OC)c(OC)c3OC)c2cc1OC`, the TGI is greater than 100 µM.

In the case of `CCn1c(C)nn2c(=O)c3ccccc3nc2c1=O`, the TGI was greater than 100 µM.

`O=C(O)CCNCCCNCCC(=O)O`: the TGI was greater than 100 µM.

For the compound `CC(=O)[CH-]C(=O)c1ccccc1.CC(=O)[CH-]C(=O)c1ccccc1.CN(C)c1ccc([O-])cc1.CN(C)c1ccc([O-])cc1.Cl.[Ti+4]`, the GI50 was 21 µM and the TGI was greater than 31.6 µM.

`NC1=NCCC1(c1ccccc1)c1ccccn1` (stereo not given) yielded a TGI greater than 100 µM.

Turning to `CCCCCCCCCCCC(=O)OCCOCCOCCOCCOCCOCc1ccccc1`, the TGI was greater than 100 µM.

In the case of `CCCCCCCCCCCCCC(=O)OC(/C=C/C(C)C)C(O)C(O)C(OC)C(=O)NC1CCCCN(C)C1=O` (stereo not given), the TGI was found to be 7.51 µM.

Take `COC(=O)c1ccccc1NC(=O)C(=O)Cc1nc2c3c(ccc2[nH]c1=O)C(=O)c1ccccc1C3=O`: the TGI is greater than 100 µM.

Compound `CCCC1C(=O)CCc2c(OC)ccc(OC)c21` (stereo not given) returned a TGI greater than 100 µM.

`NC(=O)NO.O.O.O.O.O.O.O.O.O.O.O.[Ge].[Ge].[Ge].[Ge].[Ge].[O]=[Ge].[O]=[Ge].[O]=[Ge].[O]=[Ge].[O]=[Ge][OH]` yielded a TGI greater than 100 µM.

For `O=C(Nc1nc2ccc([N+](=O)[O-])cc2s1)C(=O)C(C1OC(=O)c2ccccc21)[N+](=O)[O-]` (stereo not given), the TGI is greater than 100 µM.

For `CCC[CH2][Sn]([CH2]CCC)([S]c1cccc2cccnc12)[S]c1cccc2cccnc12`, the GI50 was 0.123 µM and the TGI was 0.342 µM.

`COC(=O)C1(C(C)C)CCc2c(OC)ccc(OC)c2C1=O` (stereo not given) displayed a TGI greater than 100 µM.

For the next experiment, the system named is MALME-3M melanoma. As to the kind of experiment: inhibition of tumour cell growth, NCI panel, 48 h.
Compound `Cc1c(C(=O)CC(=O)C(=O)Nc2ccccc2C(F)(F)F)[n+](=O)c2ccccc2n1[O-]` had a TGI of 37.1 µM.

Take `Cc1cc(N(CCC#N)CCC#N)ccc1N=Nc1ccc(S(N)(=O)=O)cc1`: the TGI was greater than 100 µM.

The compound `Cc1nc2c(ccc3ncccc32)[nH]1` gave a TGI greater than 100 µM.

`C1=C2/CC[C@H](Sc3ccccc3)C2C2(CCCCC/1)OCCO2` (stereo not given in full) had a TGI of 55.2 µM.

On to `O=C(CCc1nc(=S)[nH][nH]1)Nc1cc(Cl)c(Cl)cc1Cl`, for which the TGI was greater than 100 µM.

Turning to `CN(C)C(=S)N=C(Nc1ccccc1)Nc1ccccc1`, the TGI was greater than 100 µM.

In turn, `Nc1ccccc1S(=O)(=O)N(CC(=O)O)c1ccccc1` gave a TGI greater than 100 µM.

Take `CC1(C)C(=O)/C=C\C(=O)C(C)(C)C2=CC=C(O2)C(C)(C)C(=O)/C=C\C(=O)C(C)(C)C2=CC=C1O2`: the TGI was greater than 100 µM.

Consider `COc1ccccc1N1C(=O)C2c3[nH]c4ccccc4c3C3CCC(C(C)(C)C)CC3C2C1=O` (stereo not given), for which the TGI was greater than 100 µM.

On to `Cc1cc(NS(=O)(=O)c2ccc(Nc3c4ccccc4nc4c(C(=O)N5CCN(CCOS(C)(=O)=O)CC5)cccc34)cc2)no1`, for which the TGI is greater than 100 µM.

For `C=CCO[C@H]1CO[C@H]2[C@@H]1OC[C@@H]2Oc1ccc(Nc2ccnc(Nc3ccc(O[C@H]4CO[C@H]5[C@@H]4OC[C@@H]5OCC=C)c(Cl)c3)n2)cc1Cl`, the GI50 was 1.54 µM and the TGI is 2.91 µM.

`O=C(O)CCC(NC(=O)c1ccc(Nc2nc3ccccc3nc2-c2cccs2)cc1)C(=O)O` (stereo not given): the TGI is greater than 100 µM.

For `COc1cc2ccnc([C@@H](OC(=O)c3ccccc3)c3ccc(OC)c(OC)c3OC)c2cc1OC`, the TGI came out at 99.8 µM.

Regarding `CCn1c(C)nn2c(=O)c3ccccc3nc2c1=O`, the TGI was greater than 100 µM.

For the compound `COC(=O)/C(C#N)=C1\NC(=O)c2ccccc21`, the TGI is greater than 100 µM.

Compound `O=C(O)CCNCCCNCCC(=O)O` registered a TGI greater than 100 µM.

With `CC(=O)[CH-]C(=O)c1ccccc1.CC(=O)[CH-]C(=O)c1ccccc1.CN(C)c1ccc([O-])cc1.CN(C)c1ccc([O-])cc1.Cl.[Ti+4]`, the GI50 is 14.8 µM and the TGI was found to be 26.4 µM.

Turning to `NC1=NCCC1(c1ccccc1)c1ccccn1` (stereo not given), the TGI was greater than 100 µM.

Consider `CCCCCCCCCCCC(=O)OCCOCCOCCOCCOCCOCc1ccccc1`, for which the TGI was greater than 100 µM.

Regarding `CCCCCCCCCCCCCC(=O)OC(/C=C/C(C)C)C(O)C(O)C(OC)C(=O)NC1CCCCN(C)C1=O` (stereo not given), the TGI is 7.93 µM and > 49 µM.

Consider `CCOC(=O)CCC1(C(=O)OCC)CCCCC1=O` (stereo not given), for which the TGI is greater than 100 µM.

For the compound `COC(=O)c1ccccc1NC(=O)C(=O)Cc1nc2c3c(ccc2[nH]c1=O)C(=O)c1ccccc1C3=O`, the TGI worked out at 31 µM.

`CCOC(=O)C(C)(C)Oc1ccc2c(-c3ccccc3)cc(=O)oc2c1` returned a TGI of 73.6 µM.

`CCCC1C(=O)CCc2c(OC)ccc(OC)c21` (stereo not given) registered a TGI greater than 100 µM.

On to `NC(=O)NO.O.O.O.O.O.O.O.O.O.O.O.[Ge].[Ge].[Ge].[Ge].[Ge].[O]=[Ge].[O]=[Ge].[O]=[Ge].[O]=[Ge].[O]=[Ge][OH]`, for which the TGI is greater than 100 µM.

With `O=C(Nc1nc2ccc([N+](=O)[O-])cc2s1)C(=O)C(C1OC(=O)c2ccccc21)[N+](=O)[O-]` (stereo not given), the TGI was greater than 100 µM.

In the case of `COC(=O)C1(C(C)C)CCc2c(OC)ccc(OC)c2C1=O` (stereo not given), the TGI was greater than 100 µM.

In the next experiment the test system is 786-0 renal. Kind of experiment: inhibition of tumour cell growth, NCI panel, 48 h.
For `Cc1c(C(=O)CC(=O)C(=O)Nc2ccccc2C(F)(F)F)[n+](=O)c2ccccc2n1[O-]`, the TGI is greater than 100 µM.

Compound `Cc1cc(N(CCC#N)CCC#N)ccc1N=Nc1ccc(S(N)(=O)=O)cc1` gave a TGI greater than 100 µM.

On to `Cc1nc2c(ccc3ncccc32)[nH]1`, for which the TGI is greater than 100 µM.

`C1=C2/CC[C@H](Sc3ccccc3)C2C2(CCCCC/1)OCCO2` (stereo not given in full) displayed a TGI greater than 100 µM.

`O=C(CCc1nc(=S)[nH][nH]1)Nc1cc(Cl)c(Cl)cc1Cl` registered a TGI greater than 100 µM.

In turn, `CN(C)C(=S)N=C(Nc1ccccc1)Nc1ccccc1` returned a TGI greater than 100 µM.

`Nc1ccccc1S(=O)(=O)N(CC(=O)O)c1ccccc1` yielded a TGI greater than 100 µM.

Compound `CC1(C)C(=O)/C=C\C(=O)C(C)(C)C2=CC=C(O2)C(C)(C)C(=O)/C=C\C(=O)C(C)(C)C2=CC=C1O2` had a TGI greater than 100 µM.

On to `COc1ccccc1N1C(=O)C2c3[nH]c4ccccc4c3C3CCC(C(C)(C)C)CC3C2C1=O` (stereo not given), for which the TGI was greater than 100 µM.

`Cc1cc(NS(=O)(=O)c2ccc(Nc3c4ccccc4nc4c(C(=O)N5CCN(CCOS(C)(=O)=O)CC5)cccc34)cc2)no1` showed a TGI greater than 100 µM.
